From patent US20230372262A1, “COMPOSITION FOR TREATING VASCULAR DISEASE, COMPOSITION FOR REVENTING VASCULAR DISEASE, COMPOSITION FOR TREATING HYPERTENSION, AND COMPOSITION FOR PREVENTING HYPERTENSION” (KINKI UNIVERSITY, priority 2020, published 2023)

What was measured:
[1] = test system: rat abdominal aorta (elastic lamina); experiment: Recovery of elastic fibra in cultured abdominal aorta after nicotine (Example 8); conditions: for Evaluation (rate of destruction): as Table 9; for Rate of destruction (%) of elastic lamina: rat abdominal aorta, nicotine 24 h, then nothing, 24 h nicotine-free medium, or 24 h β-caryophyllene 100 nM
[2] = test system: elastic lamina of thoracic aorta and abdominal aorta; experiment: Rate of destruction of elastic lamina in aorta of mice given nicotine water and inhaled β-caryophyllene (Example 9); format: in vivo, ddy mice; conditions: for Evaluation (rate of destruction): as Table 10; for Rate of destruction (%) of elastic lamina: mouse aorta, nicotine 0.5 mg/mL in drinking water and/or β-caryophyllene inhalation 1 hour per exposure day
From the text: After the test, thoracic aorta and abdominal aorta were obtained by dissection. Each harvested aorta was Elastica van Gieson (EVG)-stained to measure and evaluate the rate of destruction of elastic lamina.

[3] = test system: rat abdominal aorta (elastic lamina); experiment: Rate of destruction of elastic lamina in cultured abdominal aorta with nicotine, EVG staining (Examples 5 to 7); conditions: as Table 7 rate of destruction
Procedure: Unnecessary surrounding tissues were removed from the harvested abdominal aorta, which was then dipped in a medium for aorta culture. […] These abdominal aorta specimens were cultured in a medium for aorta culture under conditions of 37° C. and 5% CO2 for 24 hours. […] Specifically, the aortic wall was stained by Elastica van Gieson (EVG) staining and immunohistochemical staining. The quantitative analysis of the histochemical stain was carried out using ImageJ software (National Institutes of Health, Bethesda, Maryland, USA). Since an elastic lamina waveform is EVG-stained, the destruction of the vascular wall was estimated from the ratio of its area. The rate of destruction of the wavy configuration of elastic lamina was calculated by dividing a destroyed region (indicated by flattening and fragmentation of elastic lamina) by the whole region of the elastic lamina.

| SMILES | Evaluation (rate of destruction) [1] | Rate of destruction (%) of elastic lamina [1] | Evaluation (rate of destruction) [2] | Rate of destruction (%) of elastic lamina [2] | Evaluation (rate of destruction) [3] |
| --- | --- | --- | --- | --- | --- |
| CN1CCCC1c1cccnc1 (single isomer, unassigned) [Comparative Example 5, nicotine] | B (a rate of destruction of more than 35% was given B) | 58% | – | – | – |
| CN1CCCC1c1cccnc1 (single isomer, unassigned) [Comparative Example 4, nicotine] | B (a rate of destruction of more than 35% was given B) | 54% | – | – | – |
| C=C1CC/C=C(\C)CC[C@@H]2[C@@H]1CC2(C)C [Comparative Example 7, β-caryophyllene] | – | – | A (When the rate of destruction of the elastic lamina waveform was less than 30%, the sample was evaluated as having a state in which the vascular wall was not destroyed (evaluation A)) | 11% | – |
| C=C1CC/C=C(\C)CC[C@@H]2[C@@H]1CC2(C)C [Example 5, β-caryophyllene] | – | – | – | 15% | A (When the rate of destruction of the elastic lamina waveform was less than 30%, the sample was evaluated as having a state in which the vascular wall was not destroyed (evaluation A)) |
| C=C1CC/C=C(\C)CC[C@@H]2[C@@H]1CC2(C)C [Example 9, β-caryophyllene] | – | – | A (When the rate of destruction of the elastic lamina waveform was less than 30%, the sample was evaluated as having a state in which the vascular wall was not destroyed (evaluation A)) | 15% | – |
| CN1CCCC1c1cccnc1 (stereo not drawn) [Comparative Example 2, nicotine, reference compound] | – | – | – | – | B (When the rate of destruction of the elastic lamina waveform was 30% or more, the sample was evaluated as having a state in which the vascular wall was destroyed (evaluation B)) |
| CN1CCCC1c1cccnc1 (stereo not drawn) [Comparative Example 8, nicotine, reference compound] | – | – | B (When the rate of destruction of the elastic lamina waveform was 30% or more, the sample was evaluated as having a state in which the vascular wall was destroyed (evaluation B)) | 42% | – |
| C=C1CC/C=C(\C)CC[C@@H]2[C@@H]1CC2(C)C [Example 8, β-caryophyllene] | A (A rate of destruction of 35% or less was given evaluation A) | 18% | – | – | – |
